Test results as given in US20210322352A1, “COMPOSITION FOR IMPROVING ENDURANCE AND METHOD OF IMPROVING ENDURANCE USING THE SAME” (PHARMA FOODS INTERNATIONAL CO., LTD., priority 2020, published 2021).

How the values were obtained:
insulin in plasma = test: Measurement of the amount of insulin in plasma; type: in vivo, mouse; conditions: 0.5% GABA diet
Experimental: (§1) Specifically, 10 week-old male ICR mice are classified into the group in which normal food is freely ingested and training is not carried out (control group), the group in which a diet of normal food added with 0.5% of GABA (1.8 g for human) is freely ingested and training is not carried out (GABA group), the group in which normal food is freely ingested and training is carried out (training group) and the group in which a diet of normal food added with 0.5% of GABA (1.8 g for human) is freely ingested and training is carried out (GABA training group) (9 mice in each group).
(§2) During the test period, the above classified mice freely ingested about 2.7 to about 5.0 g/day of normal food or GABA-comprising food per one individual. Regarding the training group and the GABA training group, running was forced for 60 minutes on a schedule of 3 times a week (interval of 1 day or 2 days). This training was continued until 3 days after termination of the below-mentioned third running test. In the training, a treadmill for small animals (Meiquest Ltd.) was used with the gradient of 0 degree to force running at 25 m/minute running speed. Since a mouse will run at the speed of about 6 to 24 m/minute without a load, the running speed of 25 m/minute is a little faster than normal, i.e., low to moderate intensity.
2 days after termination of the final training, blood of a mouse in a group is collected to measure the amount of insulin in plasma. The measurement of the amount of insulin in plasma was carried out as described below using Lbis (registered trademark) Insulin-Mouse T (FUJIFILM Wako Shibayagi Corporation).
96 well plate for turning an antibody into a solid phase was prepared and washed 4 times with a cleaning liquid. 100 μL of biotin binding anti-insulin antibody was added thereto and stirred. […] 100 μL of 1M sulphuric acid solution was respectively added to stop the reaction, measure absorbance (OD 450 nm) and calculate the amount of insulin in plasma.

PGC-1α protein = test: Relative expression of PGC-1α protein in a skeletal muscle (western blotting); type: in vivo, mouse; conditions: gastrocnemius muscle
Experimental: (§3) Specifically, 10 week-old male ICR mice are classified into the group in which normal food is freely ingested and training is not carried out (control group), the group in which a diet of normal food added with 0.5% of GABA (1.8 g for human) is freely ingested and training is not carried out (GABA group), the group in which normal food is freely ingested and training is carried out (training group) and the group in which a diet of normal food added with 0.5% of GABA (1.8 g for human) is freely ingested and training is carried out (GABA training group) (9 mice in each group). During the test period, the above classified mice freely ingested about 2.7 to about 5.0 g/day of normal food or GABA-comprising food per one individual. Regarding the training group and the GABA training group, running was forced for 60 minutes on a schedule of 3 times a week (interval of 1 day or 2 days). This training was continued until 3 days after termination of the below-mentioned third running test. In the training, a treadmill for small animals (Meiquest Ltd.) was used with the gradient of 0 degree to force running at 25 m/minute running speed. […] The amount of protein was quantified in accordance with the method of the TaKaRa BCA Protein Assay Kit (TAKARA BIO INC.) using bovine serum albumin as a standard protein. […]

phosphorylated AKT/AKT = test: Phosphorylated AKT/AKT ratio in a skeletal muscle (western blotting); type: in vivo, mouse; conditions: gastrocnemius muscle
Experimental: as §2, with “Specifically, 10 week-old male ICR mice are classified into the group in which normal food is freely ingested and training is not carried out (control group), the group in which a diet of normal food added with 0.5% of GABA (1.8 g for human) is freely ingested and training is not carried out (GABA group), the group in which normal food is freely ingested and training is carried out (training group) and the group in which a diet of normal food added with 0.5% of GABA (1.8 g for human) is freely ingested and training is carried out (GABA training group) (9 mice in each group). During” for “During”

[1] = system: glycogen in a skeletal muscle (gastrocnemius muscle); test: Measurement of the amount of glycogen in a skeletal muscle; type: in vivo, mouse; conditions: 0.5% GABA diet
Experimental: as §2, with “Specifically, 10 week-old male ICR mice are classified into the group in which normal food is freely ingested and training is not carried out (control group), the group in which a diet of normal food added with 0.5% of GABA (1.8 g for human) is freely ingested and training is not carried out (GABA group), the group in which normal food is freely ingested and training is carried out (training group) and the group in which a diet of normal food added with 0.5% of GABA (1.8 g for human) is freely ingested and training is carried out (GABA training group) (9 mice in each group). During” for “During”

AMPK protein = test: Relative expression of AMPK protein in a skeletal muscle (western blotting); type: in vivo, mouse; conditions: gastrocnemius muscle
Experimental: as §3

male ICR mice = test: Measurement of limit running time using a treadmill; type: in vivo, mouse; conditions: GABA training group vs training group, diet with 0.5% GABA
Experimental: as §2, with “Specifically, 10 week-old male ICR mice are classified into the group in which normal food is freely ingested and training is not carried out (control group), the group in which a diet of normal food added with 0.5% of GABA (1.8 g for human) is freely ingested and training is not carried out (GABA group), the group in which normal food is freely ingested and training is carried out (training group) and the group in which a diet of normal food added with 0.5% of GABA (1.8 g for human) is freely ingested and training is carried out (GABA training group) (9 mice in each group). During” for “During”

skeletal muscle = conditions: GABA in addition to whey protein vs whey protein alone; in training; J Clin Med Res. 2019; 11(6):428-434; cited from earlier work
mitochondrial DNA = test: Measurement of the amount of mitochondrial DNA in a skeletal muscle (real-time PCR); type: in vivo, mouse; conditions: GABA training group vs control group, GABA group and training group
Experimental: as §1
(§4) During the test period, the above classified mice freely ingested about 2.7 to about 5.0 g/day of normal food or GABA-comprising food per one individual. Regarding the training group and the GABA training group, running was forced for 60 minutes on a schedule of 3 times a week (interval of 1 day or 2 days). […]
20 to 50 mg of tissue sample was taken out to a 2 mL plastic tube to extract DNA in accordance with the genome DNA purification protocol described in NucleoSpin® DNARapidLyse (TAKARA BIO INC.). The amount of relative expression of the amount of mitochondria with respect to mouse nuclear DNA was quantified with the real-time PCR method using Thermal Cycler Dice® Real TimeSystem II (TAKARA BIO INC.) and set as mitochondrial DNA amount.

myosin 2a protein = test: Relative expression of myosin 2a in a skeletal muscle (soleus muscle), western blotting; type: in vivo, mouse
Experimental: as §1
as §4, with “days). This training was continued until 3 days after termination of the below-mentioned third running test.” for “days).”
Two days after termination of the final training, a skeletal muscle (soleus muscle) tissue of mouse was grinded with a biomasher on ice. […] The protein concentration of the protein extraction liquid was measured with a protein assay BCA kit and dilution was carried out with a RIPA buffer so that the protein concentration of the protein extraction liquid would be 4 mg/ml. […]

Q: With `NCCCC(=O)O` [GABA, γ-aminobutyric acid] as the compound, how does the “amount of insulin in plasma” value (insulin in plasma; GABA group vs control group, no training) read?
A: decreased

Q: And the “amount of insulin in plasma” value (insulin in plasma; GABA training group vs control group)?
A: decreased

Q: What about the “amount of insulin in plasma” value (insulin in plasma; GABA training group vs training group, P=0.07) of the same compound?
A: decreased

Q: What about the “amount of expression of PGC-1α protein in a skeletal muscle” value (PGC-1α protein; GABA training group vs training group, P=0.01) of the same compound?
A: significantly increased

Q: And the “amount of expression of PGC-1α protein in a skeletal muscle” value (PGC-1α protein; vs control group (group not given, presumably GABA group))?
A: tendency of increase

Q: And the “phosphorylated AKT/total AKT ratio in a skeletal muscle” value (phosphorylated AKT/AKT; GABA group vs control group)?
A: tendency to decrease

Q: And the “phosphorylated AKT/total AKT ratio in a skeletal muscle” value (phosphorylated AKT/AKT; GABA training group vs training group, P=0.0001)?
A: significantly decreased

Q: What about the “amount of glycogen in the gastrocnemius muscle” value ([1]; GABA group vs control group, no training, P=0.09) of the same compound?
A: tendency of increase

Q: What about the “amount of glycogen in the gastrocnemius muscle” value ([1]; GABA training group vs training group, P=0.04) of the same compound?
A: significantly increased

Q: What about the “amount of expression of AMPK protein” value (AMPK protein; GABA training group vs control group, P=0.0008) of the same compound?
A: increased

Q: And the “amount of expression of AMPK protein” value (AMPK protein; GABA training group vs training group)?
A: increased more than the training group

Q: What about the “amount of increase of running time due to a training (running time to exhaustion)” value (male ICR mice; fourth week, P=0.14) of the same compound?
A: tendency to be enlarged

Q: What about the “amount of increase of running time due to a training (running time to exhaustion)” value (male ICR mice; second week, P=0.04) of the same compound?
A: significantly enlarged

Q: And the “amount of fat removed muscle” value (skeletal muscle)?
A: increases

Q: And the muscle hypertrophy (skeletal muscle)?
A: stimulates more muscle hypertrophy

Q: What about the “mitochondrial DNA amount in a skeletal muscle” value (mitochondrial DNA) of the same compound?
A: tendency of increase

Q: And the “amount of expression of myosin 2a protein in a skeletal muscle (soleus muscle)” value (myosin 2a protein; GABA group vs control group and training group)?
A: tendency to increase

Q: And the “amount of expression of myosin 2a protein in a skeletal muscle (soleus muscle)” value (myosin 2a protein; GABA training group vs the other 3 groups)?
A: significantly increased
